{"source": "patent US20210322452A1", "about": "“COGNITIVE FUNCTION IMPROVING COMPOSITION COMPRISING NOVEL POST FERMENTED TEA-DERIVED KAEMPFEROL-BASED COMPOUND” (AMOREPACIFIC CORPORATION, priority 2016, published 2021)", "key": {"[1]": {"system": "BDNF (brain-derived neurotrophic factor)", "assay": "Expression level of intracellular BDNF in SH-SY5Y cells (real-time quantitative PCR)", "type": "cell-based", "conditions": "24 hours, mRNA vs GAPDH, untreated = 100", "method": "(§1) Specifically, SH-SY5Y (neuroblastoma, Korean Cell Line Bank) cell line was seeded in a 6-well plate (FALCON) at 2×10^6 cells per well, cultured in an incubator containing 5% CO2 at 37° C. for 24 hours, then treated with 10 μg/ml of GCG, 10 μM of EGCG, 10 μg/ml of the existing green tea extract (GTE), 10 μg/ml of the novel substance 33, and 1 μM of 5-Aza-2′deoxycytidine (5-Aza, Sigma-aldrich) as a positive control group, and further cultured for 24 hours. Thereafter, the medium was entirely removed therefrom, and RNA was extracted therefrom using an RNA extraction kit (RNeasy mini kit, Quiagen). The extracted mRNA was quantitated using an ultraviolet detector (TECAN), and then 1 μg of mRNA was synthesized into a complementary DNA using a kit (SuperScript VILO cDNA Synthesis Kit, Thermofisher Scientific). Approximately 1 μg of the complementary DNA was taken and subjected to the real-time quantitative chain reaction using Taqman probe (Life technology) and Quantitect Probe PCR Kit (Quiagen). The expression levels of BDNF and DNMT1 were thus confirmed. At this time, the housekeeping gene, GAPDH, was used as the reference mRNA."}, "[2]": {"system": "DNMT1 (DNA (cytosine-5)-methyltransferase 1)", "assay": "Expression level of intracellular DNMT1 in SH-SY5Y cells (real-time quantitative PCR)", "type": "cell-based", "conditions": "24 hours, mRNA vs GAPDH, untreated = 100", "method": "as §1"}, "[3]": {"molecular_target": "T1, beta amyloid (Aβ1-42) (Homo sapiens, UniProt P05067)", "T1 construct": "beta amyloid (Aβ1-42, AnaSpec Inc., USA) was obtained; purchased AnaSpec Inc., USA", "T1 sequence (P05067 672-713 limits assumed)": "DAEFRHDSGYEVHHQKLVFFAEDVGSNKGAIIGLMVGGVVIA", "assay": "Inhibition of beta amyloid aggregation, fluorescence analysis (ThioflavinT assay)", "type": "biochemical", "conditions": "compound 10 μM; for Increased RFU (amount of aggregated beta amyloid): Aβ1-42 0.1 mg/ml, thioflavinT, 37° C., 150 minutes; for Increased RFU (% of Pos. Cont.): Pos. Cont. (only beta amyloid, no compound) = 100%; for inhibition at 10 µM: aggregation in positive control group taken as 100%, read-out: inhibition of beta amyloid aggregation compared with the positive control group", "method": "The effect of kaempferol3-O-[2-O″-(E)-p-coumaroyl][beta-D-glucopyranosyl-(1→3)-O-alpha-L-rhamnopyranosyl-(1→6)-O-beta-D-glucopyranoside] on inhibition of beta amyloid aggregation was confirmed by the fluorescence analysis (ThioflavinT assay).\nSpecifically, beta amyloid (Aβ1-42, AnaSpec Inc., USA) was obtained and used at a concentration of 0.1 mg/ml and stored at −80° C. before use. Morin (20 μM), phenol red (20 μM), and kaempferol3-O-[2-O″-(E)-p-coumaroyl][beta-D-glucopyranosyl-(1→3)-O-alpha-L-rhamnopyranosyl-(1→6)-O-beta-D-glucopyranoside] (1 mg/ml) were respectively diluted with DMSO so as to be adjusted to the concentrations.\nIn order to specify the degree of inhibition of Aβ1-42 aggregation, each of the compounds prepared at the above concentrations was diluted with 50 μL of 0.01 M sodium phosphate buffer solution to have a concentration of 10 μM, then 40 μL of 0.1 mg/ml of Aβ1-42 was added thereto, and then 10 μl of 2 mM thioflavinT was added thereto, and fluorescence was measured using a fluorescence spectrometer (RF-5300PC, SHIMADZU CORPORATION, Japan) at 37° C. for 150 minutes at intervals of 5 minutes."}, "[4]": {"system": "skin", "assay": "Human repeated insult patch tests (HRIPT), cumulative skin irritation", "type": "in vivo", "parameters": "key to skin reactivity (ICDRG criteria): −: Negative (no reaction); ±: Suspicious or mild erythema and the like; +: Weak reaction (not accompanied by small vesicula), erythema, papule; ++: Moderate reaction (with small vesicula), erythema, papule, vesicula; +++: Strong reaction, bulla reaction", "conditions": "for Number of subjects showed ±, +, or ++ reactivity, 1st time: 1st patch; for Number of subjects showed ±, +, or ++ reactivity, 1st time / Number of subjects showed ±, +, or ++ reactivity, 2nd time / Number of subjects showed ±, +, or ++ reactivity, 3rd time / Number of subjects showed ±, +, or ++ reactivity, 4th time / Number of subjects showed ±, +, or ++ reactivity, 5th time / Number of subjects showed ±, +, or ++ reactivity, 6th time / Number of subjects showed ±, +, or ++ reactivity, 7 th time / Number of subjects showed ±, +, or ++ reactivity, 8 th time / Number of subjects showed ±, +, or ++ reactivity, 9th time: three lines per group (±, +, ++; lines not labelled); for Number of subjects showed ±, +, or ++ reactivity, 2nd time: 2nd patch; for Number of subjects showed ±, +, or ++ reactivity, 3rd time: 3rd patch; for Number of subjects showed ±, +, or ++ reactivity, 4th time: 4th patch; for Number of subjects showed ±, +, or ++ reactivity, 5th time: 5th patch; for Number of subjects showed ±, +, or ++ reactivity, 6th time: 6th patch; for Number of subjects showed ±, +, or ++ reactivity, 7 th time: 7th patch; for Number of subjects showed ±, +, or ++ reactivity, 8 th time: 8th patch; for Number of subjects showed ±, +, or ++ reactivity, 9th time: 9th patch; for Average reactivity: safe when less than 3", "method": "Human repeated insult patch tests (HRIPT) were conducted to determine the cumulative skin irritation by kaempferol3-O-[2-O″-(E)-p-coumaroyl][beta-D-glucopyranosyl-(1→3)-O-alpha-L-rhamnopyranosyl-(1→6)-O-beta-D-glucopyranoside] and to calculate the concentration range in which kaempferol3-O-[2-O″-(E)-p-coumaroyl][beta-D-glucopyranosyl-(1→3)-O-alpha-L-rhamnopyranosyl-(1→6)-O-beta-D-glucopyranoside] can be used on the skin.\nSpecifically, 15 healthy adult subjects were randomly selected, the test compositions (compositions for skin containing an emulsifier, a stabilizer, purified water, and the like in addition to the compound) containing the compound at 0.5 wt %, 1 wt %, and 3 wt % were dropped by 20 μl per chamber (IQ chamber, Epitest Ltd, Finland), and the patch was applied to the right side of the upper back of the subject and then replaced with new one after 24 hours. The skin reaction was examined before and after the patch test while the patch test was conducted three times a week and thus nine times for three weeks in total in this manner, the skin reaction was observed until the 48th hour after removal of the final patch, and the average reactivity was determined.\nThe skin reaction was judged according to the criteria of the International Contact Dermatitis Research Group (ICDRG). In the above table, “Novel substance 33” denotes kaempferol3-O-[2-O″-(E)-p-coumaroyl][beta-D-glucopyranosyl-(1→3)-O-alpha-L-rhamnopyranosyl-(1→6)-O-beta-D-glucopyranoside]."}}, "data": [{"smiles": "Nc1ncn([C@H]2C[C@H](O)[C@@H](CO)O2)c(=O)n1", "note": "[5-Aza-2′deoxycytidine, reference compound]", "values": [{"measurement": "Relative expression level of BDNF", "setting": "[1]; 1 μM", "value": 149, "unit": "%"}, {"measurement": "Relative expression level of DNMT1", "setting": "[2]; 1 μM", "value": 65, "unit": "%"}]}, {"smiles": "O=c1c(O)c(-c2ccc(O)cc2O)oc2cc(O)cc(O)c12", "note": "[Morin]", "values": [{"measurement": "Increased RFU (amount of aggregated beta amyloid)", "setting": "[3]", "value": 11471, "unit": "RFU"}, {"measurement": "Increased RFU (% of Pos. Cont.)", "setting": "[3]", "value": 78.6, "unit": "%"}, {"measurement": "inhibition at 10 µM", "setting": "[3]", "value": 21.4, "unit": "%"}]}, {"smiles": "O=S1(=O)OC(c2ccc(O)cc2)(c2ccc(O)cc2)c2ccccc21", "note": "[Phenol Red]", "values": [{"measurement": "Increased RFU (% of Pos. Cont.)", "setting": "[3]", "value": 93.6, "unit": "%"}, {"measurement": "inhibition at 10 µM", "setting": "[3]", "value": 6.4, "unit": "%"}]}, {"smiles": "CC1OC(OCC2OC(Oc3c(-c4ccc(O)cc4)oc4cc(O)cc(O)c4c3=O)C(OC(=O)/C=C/c3ccc(O)cc3)C(O)C2O)C(O)C(OC2OC(CO)C(O)C(O)C2O)C1O", "note": "[Novel substance 33, kaempferol3-O-[2-O″-(E)-p-coumaroyl][beta-D-glucopyranosyl-(1→3)-O-alpha-L-rhamnopyranosyl-(1→6)-O-beta-D-glucopyranoside]]", "values": [{"measurement": "Increased RFU (amount of aggregated beta amyloid)", "setting": "[3]", "value": 11235, "unit": "RFU"}, {"measurement": "Increased RFU (% of Pos. Cont.)", "setting": "[3]", "value": 77.0, "unit": "%"}, {"measurement": "inhibition at 10 µM", "setting": "[3]", "value": 23, "unit": "%"}, {"measurement": "Relative expression level of BDNF", "setting": "[1]; 10 μg/ml", "value": 128, "unit": "%"}, {"measurement": "Number of subjects showed ±, +, or ++ reactivity, 1st time", "setting": "[4]; 0.5 wt %", "value": 0, "unit": "persons"}, {"measurement": "Number of subjects showed ±, +, or ++ reactivity, 2nd time", "setting": "[4]; 0.5 wt %", "value": 0, "unit": "persons"}, {"measurement": "Number of subjects showed ±, +, or ++ reactivity, 3rd time", "setting": "[4]; 0.5 wt %", "value": 0, "unit": "persons"}, {"measurement": "Number of subjects showed ±, +, or ++ reactivity, 4th time", "setting": "[4]; 0.5 wt %", "value": 0, "unit": "persons"}, {"measurement": "Number of subjects showed ±, +, or ++ reactivity, 5th time", "setting": "[4]; 0.5 wt %", "value": 0, "unit": "persons"}, {"measurement": "Number of subjects showed ±, +, or ++ reactivity, 6th time", "setting": "[4]; 0.5 wt %", "value": 0, "unit": "persons"}, {"measurement": "Number of subjects showed ±, +, or ++ reactivity, 7 th time", "setting": "[4]; 0.5 wt %", "value": 0, "unit": "persons"}, {"measurement": "Number of subjects showed ±, +, or ++ reactivity, 8 th time", "setting": "[4]; 0.5 wt %", "value": 0, "unit": "persons"}, {"measurement": "Number of subjects showed ±, +, or ++ reactivity, 9th time", "setting": "[4]; 0.5 wt %", "value": 0, "unit": "persons"}, {"measurement": "Average reactivity", "setting": "[4]; 0.5 wt %", "value": 0}, {"measurement": "Number of subjects showed ±, +, or ++ reactivity, 1st time", "setting": "[4]; 1 wt %", "value": 0, "unit": "persons"}, {"measurement": "Number of subjects showed ±, +, or ++ reactivity, 2nd time", "setting": "[4]; 1 wt %", "value": 0, "unit": "persons"}, {"measurement": "Number of subjects showed ±, +, or ++ reactivity, 3rd time", "setting": "[4]; 1 wt %", "value": 0, "unit": "persons"}, {"measurement": "Number of subjects showed ±, +, or ++ reactivity, 4th time", "setting": "[4]; 1 wt %", "value": 0, "unit": "persons"}, {"measurement": "Number of subjects showed ±, +, or ++ reactivity, 5th time", "setting": "[4]; 1 wt %", "value": 0, "unit": "persons"}, {"measurement": "Number of subjects showed ±, +, or ++ reactivity, 6th time", "setting": "[4]; 1 wt %", "value": 0, "unit": "persons"}, {"measurement": "Number of subjects showed ±, +, or ++ reactivity, 7 th time", "setting": "[4]; 1 wt %", "value": 0, "unit": "persons"}, {"measurement": "Number of subjects showed ±, +, or ++ reactivity, 8 th time", "setting": "[4]; 1 wt %", "value": 0, "unit": "persons"}, {"measurement": "Number of subjects showed ±, +, or ++ reactivity, 9th time", "setting": "[4]; 1 wt %", "value": 0, "unit": "persons"}, {"measurement": "Average reactivity", "setting": "[4]; 1 wt %", "value": 0}, {"measurement": "Number of subjects showed ±, +, or ++ reactivity, 1st time", "setting": "[4]; 3 wt %", "value": 0, "unit": "persons"}, {"measurement": "Number of subjects showed ±, +, or ++ reactivity, 2nd time", "setting": "[4]; 3 wt %", "value": 0, "unit": "persons"}, {"measurement": "Number of subjects showed ±, +, or ++ reactivity, 3rd time", "setting": "[4]; 3 wt %", "value": 0, "unit": "persons"}, {"measurement": "Number of subjects showed ±, +, or ++ reactivity, 4th time", "setting": "[4]; 3 wt %", "value": 0, "unit": "persons"}, {"measurement": "Number of subjects showed ±, +, or ++ reactivity, 5th time", "setting": "[4]; 3 wt %", "value": 0, "unit": "persons"}, {"measurement": "Number of subjects showed ±, +, or ++ reactivity, 6th time", "setting": "[4]; 3 wt %", "value": 0, "unit": "persons"}, {"measurement": "Number of subjects showed ±, +, or ++ reactivity, 7 th time", "setting": "[4]; 3 wt %", "value": 0, "unit": "persons"}, {"measurement": "Number of subjects showed ±, +, or ++ reactivity, 8 th time", "setting": "[4]; 3 wt %", "value": 0, "unit": "persons"}, {"measurement": "Number of subjects showed ±, +, or ++ reactivity, 9th time", "setting": "[4]; 3 wt %", "value": 0, "unit": "persons"}, {"measurement": "Average reactivity", "setting": "[4]; 3 wt %", "value": 0}, {"measurement": "skin reactivity (ICDRG criteria)", "setting": "[4]; all the content ranges (0.5, 1, 3 wt %), 15 subjects, 9 patches in 3 weeks", "value": "−"}, {"measurement": "Relative expression level of DNMT1", "setting": "[2]; 10 μg/ml", "value": 78, "unit": "%"}]}]}
